Counter-ions that a name gives are not always drawn. Like-named read-outs stand apart in the source and are kept apart here.
Columns and labels:
PDK1 = PDK1 (Homo sapiens (Human), UniProt O15530); assay: PDK1 kinase assay (coupled PDK1/AKT/FAM-crosstide assay, IMAP fluorescence polarization); type: biochemical
In short: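 PDK1 activity is measured indirectly through activation of a PIFtide-fused AKT2 construct that phosphorylates FAM-crosstide (100 nM). The reaction uses 0.75 nM PDK1, 40 μM ATP, 30 min, 25° C, with IMAP polarization detection.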

[1] = system: phospho-akt (Thr308) in PC-3 cells; assay: Inhibition of phospho-akt (Thr308) in PC-3 cells, MSD phospho-akt 308 ELISA kit; type: cell-based; settings: Homo sapiens, 2 hours, no serum, read-out: EC50
In short: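 Phospho-Akt (Thr308) levels were measured by MSD ELISA after PC-3 cells received compound for 2 hours in serum-free medium. Controls: DMSO (high), 5 μM wortmannin (low).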

[2] = inhibition of phospo-PDK1 in vitro
[3] = inhibition of P308 Akt in PC-3 cells, MSD
[4] = PC-3, 2 h, inhibition of P308 Akt in PC-3 cells, MSD
[5] = inhibition of P308 Akt in PC-3 cells using MSD

Sequence of PDK1 (O15530 51-359): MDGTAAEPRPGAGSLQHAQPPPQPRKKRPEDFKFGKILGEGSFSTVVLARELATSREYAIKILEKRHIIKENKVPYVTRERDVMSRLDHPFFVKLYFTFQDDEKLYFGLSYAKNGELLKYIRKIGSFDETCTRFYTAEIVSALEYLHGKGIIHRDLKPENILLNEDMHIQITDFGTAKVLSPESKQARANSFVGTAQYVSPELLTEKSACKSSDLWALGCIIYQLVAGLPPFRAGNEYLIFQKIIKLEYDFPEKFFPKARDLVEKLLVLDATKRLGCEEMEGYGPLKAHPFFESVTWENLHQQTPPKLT

| IC50 (PDK1; [2]) [nM] | EC50 [1, 3] [nM] | IC50 (PDK1; inhibition of PDK1 in vitro) [nM] | EC50 [1, 5] [nM] | SMILES | other results |
| --- | --- | --- | --- | --- | --- |
| 100 to 1000 | < 1000 |  |  | CNS(=O)(=O)c1cnc(NCc2ccc(-c3ccc4ncnc(N)c4c3)s2)c(C(=O)NCc2ccc(F)c(F)c2)c1 [Ex. 8.7.1, 2-(((5-(4-aminoquinazolin-6-yl)thiophen-2-yl)methyl)amino)-N-(3,4-difluorobenzyl)-5-(N-methylsulfamoyl)nicotinamide] |  |
| 100 to 1000 |  |  |  | CC(Nc1ncccc1C(=O)NCc1ccc(F)c(F)c1)c1ccc(-c2ccc3ncnc(N)c3c2)s1 (stereo not drawn) [Ex. 7.2] | EC50 [1, 4]: 1000 to 10000 nM |
|  |  | < 100 | < 1000 | Nc1n[nH]c2ncc(-c3ccc(CNc4ncc(C(F)(F)F)cc4C(=O)Nc4ccc(Cl)cc4)cc3)cc12 [Example 304, 2-(4-(3-amino-1H-pyrazolo [3,4-b]pyridin-5-yl)benzylamino)-N-(4-chlorophenyl)-5-(trifluoromethyl)nicotinamide] |  |
| < 100 | 1000 to 10000 |  |  | O=C(NCc1ccc(F)c(F)c1)c1cccnc1NCc1ccc(-c2ccc3ncnc(NC4CC4)c3c2)s1 [Example 4.10, 2-(((5-(4-(cyclopropylamino)quinazolin-6-yl)thiophen-2-yl)methyl)amino)-N-(3,4-difluorobenzyl)nicotinamide] |  |
|  |  | < 100 | 1000 to 10000 | Nc1ncc(-c2ccc(CNc3ncc(C(F)(F)F)cc3C(=O)Nc3ccc(F)cc3)cc2)nc1C(=O)N1CCNCC1 [Example 220, 2-{4-[5-Amino-6-(piperazine-1-carbonyl)-pyrazin-2-yl]-benzylamino}-N-(4-fluoro-phenyl)-5-trifluoromethyl-nicotinamide] |  |
|  |  | < 100 | 1000 to 10000 | Nc1n[nH]c2ncc(-c3ccc(CNc4ncc(C(F)(F)F)cc4C(=O)NCc4cscn4)cc3)cc12 [Example 273, 2-(4-(3-amino-1H-pyrazolo [3,4-b]pyridin-5-yl)benzylamino)-N-(thiazol-4-ylmethyl)-5-(trifluoromethyl) nicotinamide] |  |
| 100 to 1000 |  |  |  | C[C@H](NC(=O)c1cccnc1NCc1ccc(-c2ccc3ncc(-n4ccnc4N)nc3c2)s1)c1ccc(F)c(F)c1 [Example 4.32, (S)-2-(((5-(3-(2-amino-1H-imidazol-1-yl)quinoxalin-6-yl)thiophen-2-yl)methyl)amino)-N-(1-(3,4-difluorophenyl)ethyl) nicotinamide] | EC50 [1, 4]: > 10000 nM |
| < 100 | 1000 to 10000 |  |  | O=C(NCc1ccc(F)cc1)c1cccnc1NCc1cccc(-c2c[nH]c3ncccc23)c1 [Example 1.6, 2-(3-(1H-pyrrolo[2,3-b]pyridin-3-yl)benzylamino)-N-(4-fluorobenzyl)nicotinamide] |  |
|  |  | < 100 | < 1000 | Nc1n[nH]c2ncc(-c3ccc(CNc4ncc(C(F)(F)F)cc4C(=O)NCc4ccc(Cl)cc4)cc3)cc12 [Example 279, 2-(4-(3-amino-1H-pyrazolo [3,4-b]pyridin-5-yl)benzylamino)-N-(4-chlorobenzyl)-5-(trifluoromethyl)nicotinamide] |  |
|  |  | < 100 | < 1000 | C[C@H](NC(=O)c1cc(C#N)cnc1NCc1ccc(-c2cnc(N)c(CCCCO)n2)cc1)c1ccc(F)cc1 [Example 90, 2-{4-[5-Amino-6-(4-hydroxy-butyl)-pyrazin-2-yl]-benzyl-amino}-5-cyano-N-[(S)-1-(4-fluoro-phenyl)-ethyl]-nicotinamide] |  |
| 100 to 1000 |  |  |  | Nc1ncnc2ccc(-c3ccc(CNc4ncccc4C(=O)NCc4ccc(Cl)cc4)s3)cc12 [Example 3.22, 2-({[5-(4-aminoquinazolin-6-yl)thiophen-2-yl]methyl}amino)-N-(4-chlorobenzyl)pyridine-3-carboxamide (TFA salt)] | EC50 [1, 4]: > 10000 nM |
| 1000 to 5000 | > 10000 |  |  | CC(C)Oc1cc(CNc2ncccc2C(=O)Nc2c(F)cccc2F)cc(-c2c[nH]c3ncc(C(=O)NC4CC4)cc23)c1 [Example 4.1.12, N-cyclopropyl-3-{3-[({3-[(2,6-difluorophenyl)carbamoyl]pyridin-2-yl}amino)methyl]-5-(propan-2-yloxy)phenyl}-1H-pyrrolo[2,3-b] pyridine-5-carboxamide] |  |
|  |  | > 5000 | > 10000 | C[C@H](NC(=O)c1cc(C#N)cnc1NCc1ccc(-c2ccc(NCCN(C)C)nc2)cc1)c1ccc(F)cc1 [Example 224, 5-Cyano-2-{4-[6-(2-dimethylamino-ethylamino)-pyridin-3-yl]-benzylamino}-N-[(S)-1-(4-fluoro-phenyl)-ethyl]-nicotinamide] |  |
|  |  | < 100 | < 1000 | NCCOc1nc(-c2ccc(CNc3ncc(C(F)(F)F)cc3C(=O)Nc3ccc(F)cc3)cc2)cnc1N [Example 166, 2-{4-[5-Amino-6-(2-amino-ethoxy)-pyrazin-2-yl]-benzylamino}-N-(4-fluoro-phenyl)-5-trifluoromethyl-nicotinamide] |  |
| < 100 | < 1000 |  |  | Nc1ncnc2ccc(-c3ccc(CNc4ncc(C(F)(F)F)cc4C(=O)NCc4ccc(F)c(F)c4)s3)cc12 [Ex. 8.12.1, 2-(((5-(4-aminoquinazolin-6-yl)thiophen-2-yl)methyl)amino)-N-(3,4-difluorobenzyl)-5-(trifluoromethyl)nicotinamide] |  |
|  |  | 100 to 1000 |  | Nc1n[nH]c2ncc(-c3ccc(CNc4ncc(C(F)(F)F)cc4C(=O)NC[C@@H]4CCCO4)cc3)cc12 [Example 309, (S)-2-(4-(3-amino-1H-pyrazolo [3,4-b]pyridin-5-yl)benzylamino)-N-((tetrahydrofuran-2-yl)methyl)-5-(trifluoromethyl) nicotinamide] | EC50 ([1]; PC-3, 2 h, inhibition of P308 Akt in PC-3 cells using MSD): 1000 to 10000 nM |
| < 100 |  |  | > 10000 | CCC(C)n1cc(-c2ccc(CNc3ncc(C(F)(F)F)cc3C(=O)Nc3ccc(F)cc3)cc2)c2c(N)ncnc21 (stereo not drawn) [Example 441, 2-(4-(4-amino-7-sec-butyl-7H-pyrrolo[2,3-d]pyrimidin-5-yl)benzylamino)-N-(4-fluorophenyl)-5-(trifluoromethyl)nicotinamide] |  |
|  |  | < 100 | 1000 to 10000 | Nc1n[nH]c2ncc(-c3ccc(CNc4ncc(C(F)(F)F)cc4C(=O)NC4CCCC4)cc3)cc12 [Example 302, 2-(4-(3-amino-1H-pyrazolo [3,4-b]pyridin-5-yl)benzylamino)-N-cyclopentyl-5-(trifluoromethyl)nicotinamide] |  |
| 100 to 1000 | < 1000 |  |  | CCOC(=O)c1cnc(NCc2ccc(-c3ccc4ncnc(N)c4c3)s2)c(C(=O)NCc2ccc(F)c(F)c2)c1 [Example 7.23.2, Ethyl 6-({[5-(4-aminoquinazolin-6-yl)thiophen-2-yl]methyl}amino)-5-[(3,4-difluorobenzyl)carbamoyl]pyridine-3-carboxylate] |  |
|  |  | < 100 | < 1000 | N#Cc1cnc(NCc2ccc(-c3cnc4[nH]c(=O)[nH]c4c3)cc2)c(C(=O)NCc2ccc(F)cc2)n1 [Example 365, 6-cyano-N-(4-fluorobenzyl)-3-(4-(2-oxo-2,3-dihydro-1H-imidazo[4,5-b]pyridin-6-yl)benzylamino)pyrazine-2-carboxamide] |  |
|  |  | < 100 | < 1000 | C[C@H](NC(=O)c1nc(C#N)cnc1N[C@H](C)c1ccc(-c2cnc3[nH]nc(N)c3c2)cc1)c1ccc(F)c(F)c1 [Example 42, 3-((R)-1-(4-(3-amino-1H-pyrazolo[3,4-b]pyridin-5-yl)phenyl)ethylamino)-6-cyano-N—((S)-1-(3,4-difluorophenyl)ethyl)pyrazine-2-carboxamide] |  |
| < 100 | < 1000 |  |  | CCc1nc(C)c(/C=C2\C(=O)Nc3cc(/C=C/CNc4ncccc4C(=O)NCc4ccc(F)c(F)c4)ccc32)[nH]1 [Example 15.11, N-(3,4-Difluoro-benzyl)-2-((E)-3-{3-[1-(2-ethyl-5-methyl-3H-imidazol-4-yl)-meth-(Z)-ylidene]-2-oxo-2,3-dihydro-1H-indol-6-yl}-allylamino)-nicotinamide] |  |
|  |  | 100 to 1000 | 1000 to 10000 | C[C@H](NC(=O)c1cc(C#N)cnc1NCc1ccc(-c2cnc(N)c(C(=O)N(C)C)c2)cc1)c1ccc(F)cc1 [Example 205, (S)-2-amino-5-(4-((5-cyano-3-(1-(4-fluorophenyl)ethylcarbamoyl)pyridin-2-ylamino)methyl)phenyl)-N,N-dimethylnicotinamide] |  |
| 1000 to 5000 | > 10000 |  |  | O=C(NCc1ccc(F)c(F)c1)c1cccnc1NCc1ccc(-c2ccn3ncnc3c2)s1 [Example 8.14.4, N-(3,4-difluorobenzyl)-2-({[5-([1,2,4]triazolo [1,5-a]pyridin-7-yl)thiophen-2-yl]methyl}amino)pyridine-3-carboxamide] |  |
|  |  | < 100 | 1000 to 10000 | Nc1n[nH]c2ncc(-c3ccc(CNc4ncc(C(F)(F)F)cc4C(=O)Nc4ccncn4)cc3)cc12 [Example 303, 2-(4-(3-amino-1H-pyrazolo [3,4-b]pyridin-5-yl)benzylamino)-N-(pyrimidin-4-yl)-5-(trifluoromethyl)nicotinamide] |  |
|  |  | > 5000 | > 10000 | C[C@H](NC(=O)c1cc(C#N)cnc1NCc1ccc(-c2ccc(C#N)nc2)cc1)c1ccc(F)cc1 [Example 111, (S)-5-cyano-2-(4-(6-cyanopyridin-3-yl)benzylamino)-N-(1-(4-fluorophenyl)ethyl)nicotinamide] |  |
| 100 to 1000 | > 10000 |  |  | CCOc1ccnc(NCc2ccc(-c3ccc4ncnc(N)c4c3)s2)c1C(=O)NCc1ccc(F)c(F)c1 [Ex. 7.5, 2-({[5-(4-aminoquinazolin-6-yl)thiophen-2-yl]methyl}amino)-N-(3,4-difluorobenzyl)-4-ethoxypyridine-3-carboxamide] |  |

From US10030016B2 (Sunesis Pharmaceuticals, Inc., priority 2009, dated 2018)
